Values of other authors in paper PMC2805559 (Journal of medicinal chemistry, 2009).

Tests used:
Hsp90-IP6K2 interaction = settings: ref [16]
tumor = settings: ref [1]

For `C=CCNC1=C2C[C@@H](C)C[C@H](OC)[C@H](O)[C@@H](C)/C=C(\C)[C@H](OC(N)=O)[C@@H](OC)/C=C\C=C(/C)C(=O)NC(=CC1=O)C2=O` [17-AAG, 17-allylamino, 17-demethoxygeldanamycin], which “effect on binding of IP6K2 to Hsp90” value (Hsp90-IP6K2 interaction) is on record?
The value was “does not affect the binding”.

With Sansalvamide A as the molecule, how does the anti-tumor activity (tumor) read?
The anti-tumor activity was “micromolar potency”.
